Measurements as given in PubChem BioAssay (NCI).
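Following 48 hours of exposure in 96-well plates, responses at five concentrations were used to interpolate endpoints linearly. At the GI50, growth is halved. Definition used: TGI = concentration required for complete inhibition of growth.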

Legend:
Assay in all cases: inhibition of tumour cell growth, NCI panel, 48 h
SNB-75 CNS = system: SNB-75 CNS
SK-OV-3 ovarian = system: SK-OV-3 ovarian
RXF 393 renal = system: RXF 393 renal
LOX IMVI melanoma = system: LOX IMVI melanoma
SF-539 CNS = system: SF-539 CNS
HCT-116 colon = system: HCT-116 colon
OVCAR-5 ovarian = system: OVCAR-5 ovarian
IGROV1 ovarian = system: IGROV1 ovarian
MALME-3M melanoma = system: MALME-3M melanoma
UACC-62 melanoma = system: UACC-62 melanoma

Which GI50 (SNB-75 CNS) does the source give for `CCN(CCO)CC(C)Nc1ccc([N+](=O)[O-])c2sc3ccccc3c(=O)c12` (stereo not given) here?
The GI50 was 1.84 µM.

What about the TGI (SNB-75 CNS) of the same compound?
The TGI was 12.6 µM.

What about the GI50 (SK-OV-3 ovarian) of the same compound?
Its GI50 is 2.53 µM.

And the TGI (SK-OV-3 ovarian)?
Its TGI is 14 µM.

What about the GI50 (RXF 393 renal) of the same compound?
The GI50 was 1.89 µM.

What about the TGI (RXF 393 renal) of the same compound?
The TGI was 8 µM.

What about the GI50 (LOX IMVI melanoma) of the same compound?
Its GI50 is 0.746 µM.

And the TGI (LOX IMVI melanoma)?
The TGI was 2.69 µM.

And the GI50 (SF-539 CNS)?
The GI50 was 3.6 µM.

What about the TGI (SF-539 CNS) of the same compound?
The TGI was 19.2 µM.

What about the GI50 (HCT-116 colon) of the same compound?
Its GI50 is 0.996 µM.

What about the TGI (HCT-116 colon) of the same compound?
Its TGI is 2.69 µM.

What about the GI50 (OVCAR-5 ovarian) of the same compound?
The GI50 was 3.68 µM.

What about the TGI (OVCAR-5 ovarian) of the same compound?
The TGI was 18.5 µM.

And the GI50 (IGROV1 ovarian)?
Its GI50 is 0.34 µM.

And the TGI (IGROV1 ovarian)?
Its TGI is 1.6 µM.

And the GI50 (MALME-3M melanoma)?
Its GI50 is 0.421 µM.

What about the TGI (MALME-3M melanoma) of the same compound?
The TGI was 2.13 µM.

And the GI50 (UACC-62 melanoma)?
The GI50 was 1.63 µM.

What about the TGI (UACC-62 melanoma) of the same compound?
Its TGI is 12.8 µM.

For `CN(CC(N)=O)C(=O)N(CCCl)N=O`, which TGI (SNB-75 CNS) is on record?
The TGI was > 100 µM.

What about the TGI (SK-OV-3 ovarian) of the same compound?
The TGI was > 100 µM.

What about the TGI (RXF 393 renal) of the same compound?
Its TGI is > 100 µM.

What about the TGI (LOX IMVI melanoma) of the same compound?
The TGI was > 100 µM.

And the TGI (SF-539 CNS)?
Its TGI is > 100 µM.

What about the TGI (HCT-116 colon) of the same compound?
Its TGI is > 100 µM.

What about the TGI (OVCAR-5 ovarian) of the same compound?
Its TGI is > 100 µM.

And the TGI (IGROV1 ovarian)?
The TGI was > 100 µM.

And the TGI (MALME-3M melanoma)?
Its TGI is > 100 µM.

And the TGI (UACC-62 melanoma)?
Its TGI is > 100 µM.

Which results are given for `CCCCCCCCCCCCCP(=O)(O)NCC(N)=O`?
TGI (SNB-75 CNS): > 100 µM; TGI (SK-OV-3 ovarian): > 100 µM; TGI (RXF 393 renal): > 100 µM; TGI (LOX IMVI melanoma): > 100 µM; TGI (SF-539 CNS): > 100 µM; TGI (HCT-116 colon): > 100 µM; TGI (OVCAR-5 ovarian): > 100 µM; TGI (IGROV1 ovarian): > 100 µM; TGI (MALME-3M melanoma): > 100 µM; TGI (UACC-62 melanoma): > 100 µM

With `Cc1c(C2=C(c3cn(C)c4ccccc34)C(=O)NC2=O)c2ccccc2n1C` as the compound, how does the GI50 (SNB-75 CNS) read?
The GI50 was 0.732 µM.

What about the TGI (SNB-75 CNS) of the same compound?
The TGI was 7.38 µM.

And the GI50 (SK-OV-3 ovarian)?
Its GI50 is 1.78 µM.

What about the TGI (SK-OV-3 ovarian) of the same compound?
Its TGI is > 25 µM.

What about the GI50 (RXF 393 renal) of the same compound?
Its GI50 is 1.38 µM.

And the TGI (RXF 393 renal)?
Its TGI is 19.6 µM.

And the GI50 (LOX IMVI melanoma)?
Its GI50 is 5.3 µM.

What about the TGI (LOX IMVI melanoma) of the same compound?
Its TGI is > 25 µM.

What about the GI50 (SF-539 CNS) of the same compound?
The GI50 was 0.921 µM.

What about the TGI (SF-539 CNS) of the same compound?
The TGI was > 6.77 µM.

And the GI50 (HCT-116 colon)?
Its GI50 is 1.38 µM.

And the TGI (HCT-116 colon)?
Its TGI is > 25 µM.

What about the GI50 (OVCAR-5 ovarian) of the same compound?
Its GI50 is > 25 µM.

And the TGI (OVCAR-5 ovarian)?
Its TGI is > 25 µM.

What about the GI50 (IGROV1 ovarian) of the same compound?
Its GI50 is > 10.2 µM.

What about the TGI (IGROV1 ovarian) of the same compound?
Its TGI is > 25 µM.

And the GI50 (MALME-3M melanoma)?
The GI50 was > 25 µM.

And the TGI (MALME-3M melanoma)?
Its TGI is > 25 µM.

What about the GI50 (UACC-62 melanoma) of the same compound?
Its GI50 is 1.95 µM.

And the TGI (UACC-62 melanoma)?
Its TGI is > 25 µM.

How did the TGI (SNB-75 CNS) turn out when `CCCCCCN(N)C(=O)CC#N` was run?
Its TGI is > 100 µM.

What about the TGI (SK-OV-3 ovarian) of the same compound?
Its TGI is > 100 µM.

What about the TGI (RXF 393 renal) of the same compound?
Its TGI is 94.8 µM.

And the TGI (LOX IMVI melanoma)?
Its TGI is > 100 µM.

What about the TGI (SF-539 CNS) of the same compound?
The TGI was > 100 µM.

What about the TGI (HCT-116 colon) of the same compound?
The TGI was > 100 µM.

What about the TGI (OVCAR-5 ovarian) of the same compound?
Its TGI is > 100 µM.

And the TGI (IGROV1 ovarian)?
The TGI was > 100 µM.

And the TGI (MALME-3M melanoma)?
Its TGI is > 100 µM.

What about the TGI (UACC-62 melanoma) of the same compound?
Its TGI is > 100 µM.

`Cc1ccc(NC(=O)c2ccccc2C(=O)O)cc1C` was tested. Which TGI (SNB-75 CNS) did it give?
The TGI was > 100 µM.

What about the TGI (SK-OV-3 ovarian) of the same compound?
The TGI was > 100 µM.

And the TGI (RXF 393 renal)?
The TGI was > 100 µM.

And the TGI (LOX IMVI melanoma)?
Its TGI is > 100 µM.

What about the TGI (SF-539 CNS) of the same compound?
Its TGI is > 100 µM.

What about the TGI (HCT-116 colon) of the same compound?
The TGI was > 100 µM.

And the TGI (OVCAR-5 ovarian)?
The TGI was > 100 µM.

And the TGI (IGROV1 ovarian)?
The TGI was > 100 µM.

And the TGI (MALME-3M melanoma)?
Its TGI is > 100 µM.

And the TGI (UACC-62 melanoma)?
Its TGI is > 100 µM.

Which results are given for `Cn1cc(-c2nonc2-c2cn(C)c3ccccc23)c2ccccc21`?
GI50 (SNB-75 CNS): 0.176 µM; TGI (SNB-75 CNS): 0.842 µM; GI50 (SK-OV-3 ovarian): 1.28 µM; TGI (SK-OV-3 ovarian): > 100 µM; GI50 (RXF 393 renal): 0.827 µM; TGI (RXF 393 renal): 21.9 µM; GI50 (LOX IMVI melanoma): 1.24 µM; TGI (LOX IMVI melanoma): > 100 µM; GI50 (SF-539 CNS): 0.559 µM; TGI (SF-539 CNS): 2.19 µM; GI50 (HCT-116 colon): 0.61 µM; TGI (HCT-116 colon): > 100 µM; GI50 (OVCAR-5 ovarian): 4.51 µM; TGI (OVCAR-5 ovarian): > 100 µM; GI50 (IGROV1 ovarian): 1.53 µM; TGI (IGROV1 ovarian): > 100 µM; GI50 (MALME-3M melanoma): 1.06 µM; TGI (MALME-3M melanoma): > 100 µM; GI50 (UACC-62 melanoma): 0.442 µM; TGI (UACC-62 melanoma): > 100 µM

With `Cn1cncc1CC1COC(=O)C1C(O)c1ccccc1` (stereo not given) as the compound, how does the TGI (SNB-75 CNS) read?
The TGI was > 100 µM.

What about the TGI (SK-OV-3 ovarian) of the same compound?
Its TGI is > 100 µM.

And the TGI (RXF 393 renal)?
Its TGI is > 100 µM.

And the TGI (LOX IMVI melanoma)?
The TGI was > 100 µM.

And the TGI (SF-539 CNS)?
The TGI was > 100 µM.

And the TGI (HCT-116 colon)?
Its TGI is > 100 µM.

What about the TGI (OVCAR-5 ovarian) of the same compound?
Its TGI is > 100 µM.

What about the TGI (IGROV1 ovarian) of the same compound?
Its TGI is > 100 µM.

And the TGI (MALME-3M melanoma)?
The TGI was > 100 µM.

What about the TGI (UACC-62 melanoma) of the same compound?
The TGI was > 100 µM.
